The subject of data set [1] is A-549. Kind of data set: SRB assay, lung cancer cell line A-549. The format is cell-based. The conditions noted are these: Homo sapiens, A549, 48 h, read-out: In vitro anticancer activity GI50, Lung A-549. The method, then:
(§1) Single cell suspension of the tumour cells grown in tissue culture were made, cells counted and cell count adjusted to 1×10^5 to 5×10^5 cells/ml. Ninety six (96) well plates were seeded with this cell suspension, each well receiving 100 μl of it. The plate was then be incubated at 37° C. temperature in CO2 incubator for 24 hours. Drugs were added at concentrations after 24-hour incubation followed by further incubation for 48 hours. Experiment was terminated by gently layering the cells in the wells with 30% TCA and plates were kept in refrigerator for 1 hour following which they were washed thoroughly with tap water, dried attained with 0.4% SRB in 1% acetic aid and finally, the bound SRB eluted with 10 mM tris. Absorbance was read at 540 nm, in the microtitre-plate reader. Optical density of drug-treated cells was compared with that of control cells and cell inhibition was calculated as percent values. Each compound was tested at 10, 20, 40 and 80 μg/ml in triplicate on human malignant cell lines.

For data set [2], the system named is Hop62. Kind of data set: SRB assay, lung cancer cell line Hop62. The format is cell-based. The conditions noted are these: Homo sapiens, HOP-62, 48 h, read-out: In vitro anticancer activity GI50, Lung Hop62. How it is done:
as §1

Data set [3] relates to KB. Kind of data set: SRB assay, oral cancer cell line KB. The format is cell-based. The following applies: Homo sapiens, 48 h, read-out: In vitro anticancer activity GI50, Oral KB. The method, then: as §1
(Sulforhodamine B stains cellular protein and so reports cell mass.)

Data set [4] concerns DWD. The data set can be described thus: SRB assay, oral cancer cell line DWD. Type of data set: cell-based. The conditions noted are these: Homo sapiens, 48 h, read-out: In vitro anticancer activity GI50, Oral DWD. How it is done:
as §1

The test system of data set [5] is A-2780. The data set can be described thus: SRB assay, ovarian cancer cell line A-2780. The following applies: Homo sapiens, A2780, 48 h, read-out: In vitro anticancer activity GI50, Ovarian A-2780. The format is cell-based. How it is done: as §1
The subject of data set [6] is MCF7. The data set can be described thus: SRB assay, breast cancer cell line MCF7. The format is cell-based. The following applies: Homo sapiens, MCF7, 48 h, read-out: In vitro anticancer activity GI50, Breast MCF7. The method, then: as §1
Data set [7] concerns Zr-75-1. Kind of data set: SRB assay, breast cancer cell line Zr-75-1. The format is cell-based. The following applies: Homo sapiens, ZR-75-1, 48 h, read-out: In vitro anticancer activity GI50, Breast Zr-75-1. The method, then: as §1
In data set [8] the test system is Gurav. Kind of data set: SRB assay, oral cancer cell line Gurav. The format is cell-based. The conditions noted are these: Homo sapiens, 48 h, read-out: In vitro anticancer activity GI50, Oral Gurav. How it is done: as §1
In data set [9] the test system is Colo205. Kind of data set: SRB assay, colon cancer cell line Colo205. The format is cell-based. The conditions noted are these: Homo sapiens, COLO 205, 48 h, read-out: In vitro anticancer activity GI50, Colon Colo205. How it is done:
as §1

`COc1cccc(/C=C(/C(=O)N[C@@H]2c3cc4c(cc3[C@@H](c3cc(OC)c(OC)c(OC)c3)[C@H]3C(=O)OC[C@@H]32)OCO4)c2cc(OC)c(OC)c(OC)c2)c1` [Compound 3o, 4β-(E)-3-(3-methoxyphenyl)-2-(3,4,5-trimethoxyphenyl)acrylamidopodophyllotoxin] came in with a melting point of 187 to 190 °C. Further, the GI50 in data set [1] is less than 100 nM. Besides, the GI50 in data set [2] was found to be 180 nM. In addition, in [3], the GI50 stood at 2100 nM. The GI50 in [4] was found to be 2200 nM. The GI50 in [5] was less than 100 nM. For the same molecule, the 50% growth inhibitory concentration (GI50) in data set [6] was 2700 nM. In data set [7], the GI50 is 180 nM. Moreover, in data set [8], the GI50 was 2100 nM.

`COc1cc(/C=C(/C(=O)N[C@@H]2c3cc4c(cc3[C@@H](c3cc(OC)c(OC)c(OC)c3)[C@H]3C(=O)OC[C@@H]32)OCO4)c2cc(OC)c(OC)c(OC)c2)ccc1O` [Compound 3a, 4β-(E)-3-(4-hydroxy-3-methoxyphenyl)-2-(3,4,5-trimethoxyphenyl)acrylamidopodophyllotoxin] yielded a melting point of 134 to 137 °C. In data set [1], the GI50 turned out to be 2400 nM. Besides, the GI50 in data set [2] was found to be 2500 nM.

As for `COc1cc(/C(=C\c2ccccc2[N+](=O)[O-])C(=O)N[C@@H]2c3cc4c(cc3[C@@H](c3cc(OC)c(OC)c(OC)c3)[C@H]3C(=O)OC[C@@H]32)OCO4)cc(OC)c1OC` [Compound 3k, 4β-(E)-3-(2-nitrophenyl)-2-(3,4,5-trimethoxyphenyl)acrylamidopodophyllotoxin], the melting point is 197 to 200 °C. In addition, the GI50 in [1] was determined as 2500 nM. For the same molecule, the GI50 in [2] was found to be 2700 nM. For the same molecule, the GI50 in [3] is 2700 nM. Moreover, the GI50 in [5] was found to be 2300 nM. In [7], the GI50 worked out at 2500 nM.

`COc1cc(/C(=C\c2ccc([N+](=O)[O-])cc2)C(=O)N[C@@H]2c3cc4c(cc3[C@@H](c3cc(OC)c(OC)c(OC)c3)[C@H]3C(=O)OC[C@@H]32)OCO4)cc(OC)c1OC` [Compound 3i, 4β-(E)-3-(4-nitrophenyl)-2-(3,4,5-trimethoxyphenyl)acrylamidopodophyllotoxin] had a melting point of 187 to 190 °C. For the same molecule, the GI50 in data set [2] is 2700 nM. Also, the GI50 in data set [4] came out at 2400 nM. The GI50 in data set [9] is 2100 nM. For the same molecule, the GI50 in data set [5] came to 2600 nM. For the same molecule, the GI50 in [7] was 2200 nM. Also, the GI50 in data set [8] was found to be 2100 nM.

The molecule `COc1ccc(F)c(/C=C(/C(=O)N[C@@H]2c3cc4c(cc3[C@@H](c3cc(OC)c(OC)c(OC)c3)[C@H]3C(=O)OC[C@@H]32)OCO4)c2cc(OC)c(OC)c(OC)c2)c1` [Compound 3e, 4β-(E)-3-(2-fluoro-5-methoxyphenyl)-2-(3,4,5-trimethoxyphenyl)acrylamidopodophyllotoxin] came in with a melting point of 123 to 126 °C. The GI50 in data set [7] worked out at 2700 nM. Further, in data set [8], the GI50 turned out to be 2500 nM.

`COc1ccc(/C=C(/C(=O)N[C@@H]2c3cc4c(cc3[C@@H](c3cc(OC)c(OC)c(OC)c3)[C@H]3C(=O)OC[C@@H]32)OCO4)c2cc(OC)c(OC)c(OC)c2)cc1O` [Compound 3b, 4β-(E)-3-(3-hydroxy-4-methoxyphenyl)-2-(3,4,5-trimethoxyphenyl)acrylamido podophyllotoxin] gave a melting point of 145 to 147 °C. In data set [1], the GI50 stood at 2900 nM. In addition, in data set [2], the GI50 is 2900 nM.

`COc1cc(/C(=C\c2cccc([N+](=O)[O-])c2)C(=O)N[C@@H]2c3cc4c(cc3[C@@H](c3cc(OC)c(OC)c(OC)c3)[C@H]3C(=O)OC[C@@H]32)OCO4)cc(OC)c1OC` [Compound 3j, 4β-(E)-3-(3-nitrophenyl)-2-(3,4,5-trimethoxyphenyl)acrylamido podophyllotoxin]: the melting point lay within 181 to 184 °C. In data set [1], the GI50 worked out at 2400 nM. Besides, the GI50 in [2] came to 170 nM. Besides, in [4], the GI50 is less than 100 nM. Further, the GI50 in data set [5] amounted to 2500 nM. Moreover, in data set [6], the GI50 is 2700 nM. The GI50 in [8] is 2100 nM.

For `COc1ccccc1/C(=C\c1ccc([N+](=O)[O-])cc1)C(=O)N[C@@H]1c2cc3c(cc2[C@@H](c2cc(OC)c(OC)c(OC)c2)[C@H]2C(=O)OC[C@@H]21)OCO3` [Compound 3l, 4β-(E)-2-(2-methoxyphenyl)-3-(4-nitrophenyl)acrylamidopodophyllotoxin], the melting point fell in the range of 181 to 183 °C. For the same molecule, the GI50 in [1] is less than 100 nM. Moreover, in [2], the GI50 was determined as 2000 nM. Besides, the GI50 in [3] was 2400 nM. Besides, in data set [4], the GI50 was determined as 2300 nM. Further, the GI50 in data set [5] stood at 2300 nM. For the same molecule, the GI50 in [6] is 2700 nM. Moreover, the GI50 in [7] is 2100 nM. The GI50 in data set [8] came to 2100 nM.

In the case of `COc1cc(/C=C(/C(=O)N[C@@H]2c3cc4c(cc3[C@@H](c3cc(OC)c(OC)c(OC)c3)[C@H]3C(=O)OC[C@@H]32)OCO4)c2cc(OC)c(OC)c(OC)c2)ccc1F` [Compound 3c, 4β-(E)-3-(4-fluoro-3-methoxyphenyl)-2-(3,4,5-trimethoxyphenyl)acrylamidopodophyllotoxin], the melting point lay within 144 to 146 °C. In data set [2], the 50% growth inhibitory concentration (GI50) was 2500 nM. Further, the GI50 in [7] stood at 2200 nM. In data set [8], the GI50 was 2400 nM.

In turn, `COc1ccc(/C=C(/C(=O)N[C@@H]2c3cc4c(cc3[C@@H](c3cc(OC)c(OC)c(OC)c3)[C@H]3C(=O)OC[C@@H]32)OCO4)c2cc(OC)c(OC)c(OC)c2)cc1` [Compound 3n, 4β-(E)-3-(4-methoxyphenyl)-2-(3,4,5-trimethoxyphenyl)acrylamidopodophyllotoxin] registered a melting point of 128 to 130 °C. Besides, the GI50 in [4] was found to be 2300 nM. Moreover, the GI50 in [9] was determined as 170 nM. Further, in data set [5], the GI50 amounted to 2500 nM. Further, the GI50 in data set [6] came out at 2900 nM. Moreover, the 50% growth inhibitory concentration (GI50) in data set [7] is 2900 nM. Also, the GI50 in data set [8] is 2200 nM.

The molecule `COc1ccc(/C=C(/C(=O)N[C@@H]2c3cc4c(cc3[C@@H](c3cc(OC)c(OC)c(OC)c3)[C@H]3C(=O)OC[C@@H]32)OCO4)c2cc(OC)c(OC)c(OC)c2)c(F)c1` [Compound 3f, 4β-(E)-3-(2-fluoro-4-methoxyphenyl)-2-(3,4,5-trimethoxyphenyl)acrylamidopodophyllotoxin] came in with a melting point of 123 to 125 °C. In addition, the GI50 in data set [1] is 2100 nM. Further, the GI50 in data set [2] stood at 170 nM. In addition, the GI50 in [3] was 2600 nM. The GI50 in data set [4] came to 190 nM. For the same molecule, in data set [5], the GI50 was found to be 2700 nM. The 50% growth inhibitory concentration (GI50) in data set [6] stood at 2400 nM. Besides, the GI50 in data set [7] came to 2500 nM. In data set [8], the GI50 was 180 nM.

The molecule `COc1ccc(/C=C(/C(=O)N[C@@H]2c3cc4c(cc3[C@@H](c3cc(OC)c(OC)c(OC)c3)[C@H]3C(=O)OC[C@@H]32)OCO4)c2cc(OC)c(OC)c(OC)c2)cc1[N+](=O)[O-]` [Compound 3h, 4β-(E)-3-(4-methoxy-3-nitrophenyl)-2-(3,4,5-trimethoxyphenyl)acrylamidopodophyllotoxin] had a melting point of 140 to 143 °C. In data set [2], the GI50 amounted to 2300 nM. In data set [4], the GI50 worked out at 2900 nM. In addition, in data set [9], the GI50 was 2700 nM. In data set [5], the GI50 was 2500 nM. The GI50 in data set [7] is 2200 nM. Moreover, in [8], the GI50 is 2600 nM.

As for `COc1cc(/C(=C\c2ccc(O)cc2)C(=O)N[C@@H]2c3cc4c(cc3[C@@H](c3cc(OC)c(OC)c(OC)c3)[C@H]3C(=O)OC[C@@H]32)OCO4)cc(OC)c1OC` [Compound 3p, 4β-(E)-3-(4-hydroxyphenyl)-2-(3,4,5-trimethoxyphenyl)acrylamidopodophyllotoxin], the melting point lay in the range of 137 to 140 °C. For the same molecule, the GI50 in [1] was 2300 nM. Also, the GI50 in [2] stood at 2600 nM. Further, in data set [3], the GI50 is 2600 nM. Also, the GI50 in data set [4] was 2700 nM. Besides, the GI50 in [7] worked out at 2700 nM. Besides, the 50% growth inhibitory concentration (GI50) in data set [8] came out at 2700 nM.

The molecule `COc1ccccc1/C(=C\c1ccccc1[N+](=O)[O-])C(=O)N[C@@H]1c2cc3c(cc2[C@@H](c2cc(OC)c(OC)c(OC)c2)[C@H]2C(=O)OC[C@@H]21)OCO3` [Compound 3m, 4β-(E)-2-(2-methoxyphenyl)-3-(2-nitrophenyl)acrylamidopodophyllotoxin] returned a melting point of 187 to 190 °C. Besides, in data set [1], the GI50 is less than 100 nM. The GI50 in [2] amounted to 2100 nM. In addition, the GI50 in data set [3] was 2500 nM. The GI50 in [4] was 2300 nM. Moreover, in [5], the GI50 was found to be 2200 nM. Also, the GI50 in data set [6] amounted to 2800 nM. In data set [7], the GI50 stood at 2200 nM. Moreover, the GI50 in [8] was 2200 nM.

What is called GI50 is the concentration at which growth is held to half of that of the control. By melting point is commonly meant the temperature of the solid-liquid transition.

Values taken from patent US8673969B2, “Substituted 4-β-acrylamidopodophyllotoxin congeners as antitumour antibiotics and the process for preparation thereof” (Council of Scientific & Industrial Research, priority 2010, dated 2014).
